According to patent US9708323B2, “Tricyclic compounds as alpha-7 nicotinic acetylcholine receptor ligands” (BRISTOL-MYERS SQUIBB COMPANY, priority 2014, dated 2017):

These molecules were tested against T1, α-7 nicotinic ACh receptor ion channel expressed in HEK 293 cells (Rattus norvegicus, UniProt Q05941) (assay: Ca2+-sensitive, fluorescence-based assay for α-7 nicotinic acetylcholine receptor channel function in mammalian cells (FLIPR)). Conditions: Table 2, agonist Ca2+ flux, read-out: FLIPR α7 (EC50).
T1 construct: expressed in transfected cells
T1 sequence (Q05941 23-502): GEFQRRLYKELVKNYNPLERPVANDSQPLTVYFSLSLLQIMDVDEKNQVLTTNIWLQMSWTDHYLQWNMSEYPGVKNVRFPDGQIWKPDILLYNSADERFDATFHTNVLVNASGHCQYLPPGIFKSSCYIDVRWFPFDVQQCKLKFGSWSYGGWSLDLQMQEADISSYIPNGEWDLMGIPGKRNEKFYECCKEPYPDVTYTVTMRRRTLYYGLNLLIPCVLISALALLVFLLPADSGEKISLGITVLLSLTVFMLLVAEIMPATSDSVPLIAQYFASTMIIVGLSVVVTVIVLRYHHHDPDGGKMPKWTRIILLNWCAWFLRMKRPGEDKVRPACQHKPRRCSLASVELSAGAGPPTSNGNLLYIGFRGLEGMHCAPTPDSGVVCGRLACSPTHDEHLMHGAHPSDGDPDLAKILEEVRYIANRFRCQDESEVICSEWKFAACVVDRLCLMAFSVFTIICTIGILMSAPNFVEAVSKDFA
Assay type: cell-based
Experimental: II) A Ca^2+-Sensitive, Fluorescence-Based Assay α-7 for Nicotinic Acetylcholine Receptor Channel Function in Mammalian Cells (“FLIPR”). Summary:
Lead compounds are evaluated for agonist activity at α-7, α3β4, α4αβ2, and α1β1δ1ε sub-types of nicotinic ACh receptor ion channels expressed in mammalian HEK 293 cells. Agonist potency and efficacy values are determined from kinetic fluorescence Ca^2+ influx measurements made using a 384 well FLIPR (Fluorescence Image Plate Reader). The utility of fluorescent indicators for measuring changes in intracellular divalent cation concentrations, particularly Ca^2+, for drug discovery endeavors is well documented (Rudiger, R., et al., Nature Reviews, 2003, 4:579-586; Gonzalez J. E., et al., Receptors and Channels, 2002, 8:283-295). In this assay, channel expressing HEK cell lines seeded in 384 well assay plates are loaded with a membrane permeant fluorescent Ca^2+ indicator dye, whose 510 nm green emission signal increases in response to elevation of intracellular Ca^2+ concentration. The basal fluorescence from the cells is monitored in real time, followed by the acute addition of test compounds. If the compound is an agonist at any of the non-selective cation channels, the latter open and allow the movement of extracellular Ca^2+ ions into the cell cytoplasm, where they bind to the Ca^2+ indicator dye, and produce an increase in fluorescence output signal, which is detected by a cooled CCD imaging camera.
Reagents: The acetomethoxy (AM) ester of the Ca^2+ indicator dye Fluo-4 was obtained from InVitrogen, (Carlsbad, Calif.). Acetylcholine and all buffer constituents were purchased from Sigma Chemical Company, St. Louis, Mo. G418 and Minimal Essential Medium were purchased from InVitrogen Life Technologies, Carlsbad, Calif. Fetal bovine serum was purchased from (InVitrogen, Carlsbad, Calif.).
HEK-293 cells were grown in Minimal Essential Medium containing 10% (v/v) fetal bovine serum at 37° C. in a 5% CO2 incubator. HEK-293 cells stably expressing the ion channels were grown in the same medium with the addition of 500 μg/ml G418.
HEK-293 cells expressing the ion channels of interest were plated in 384 well, black-walled, clear-bottomed, poly-D-lysine coated plates at a density of ˜20,000 cells/well in 20 μl of Minimal Essential Medium containing 10% (v/v) fetal bovine serum and incubated for 2 days at 29° C. in a 5% CO2 incubator. Prior to assay, cells were loaded with the Fluo-4 AM ester. Cell loading was accomplished by removing the culture medium and replacing it with 30 μl/well of the AM ester of the dye (5 μM) mixed with Hanks Balanced Salt Solution (#14175-095) containing 20 mM HEPES, 2.5 mM probenecid, 0.5 mM CaCl2, 1 mM MgCl2 and 10 μM atropine. Dye loading was allowed to proceed for 90 minutes at room temperature at which time the dye loading solution was removed and replaced with 40 μl/well of Hanks buffer. Cells loaded with dye were loaded onto a FLIPR384 (Molecular Devices, Sunnyvale, Calif.). Fluo-4 dye was excited using the 488 nm line of an argon laser. Emission was filtered using a 540+/−30 nm bandpass filter. For evaluation of the effects of test compounds using the Ca^2+ flux assay, compounds to be tested were provided in assay ready plates. For nicotinic receptor ion channel expressing cells, the assay was initiated by the addition of 20 μl/well of Hanks buffer containing test compounds. For all assays, data were collected at 1 Hz for 10 seconds (baseline), at which time the compound containing stimulus buffers are added, and further measurements collected at 0.33 Hz for 3 min.
The statistical robustness of the nicotinic receptor Ca^2+ flux assays is determined from blanks and totals wells. The totals wells define maximal channel activation for each compound test plate (Maximum efficacious dose of acetylcholine), and the blanks wells which contain matched DMSO only, define zero channel activation. […]

| Structure (SMILES) | EC50 [µM] |
| --- | --- |
| O=C(c1cc2ccccc2o1)N1C[C@H]2C[N@]3CC[C@H]2[C@H]1C3 [Example 99, benzofuran-2-yl((3R,3aR,6S,7aS)-hexahydro-3,6-methanopyrrolo[2,3-c]pyridin-1(2H)-yl)methanone] | 35 |

Same assay, conditions: Table 3, agonist Ca2+ flux, read-out: FLIPR α7 (EC50)

| Structure (SMILES) | EC50 [µM] |
| --- | --- |
| O=C(c1cc2ccccc2s1)N1C[C@@H]2C[N@@]3CC[C@@H]2[C@@H]1C3 [Example 100, benzo[b]thiophen-2-yl((3S,3aS,6R,7aR)-hexahydro-3,6-methanopyrrolo[2,3-c]pyridin-1(2H)-yl)methanone] | 11 |
| Cn1nc(C(=O)N2C[C@@H]3C[N@@]4CC[C@@H]3[C@@H]2C4)c2ccccc21 [Example 101, ((3S,3aS,6R,7aR)-hexahydro-3,6-methanopyrrolo[2,3-c]pyridin-1(2H)-yl)(1-methyl-1H-indazol-3-yl)methanone] | > 100 |
| Cn1cc(C(=O)N2C[C@@H]3C[N@@]4CC[C@@H]3[C@@H]2C4)c2ccccc21 [Example 102, ((3S,3aS,6R,7aR)-hexahydro-3,6-methanopyrrolo[2,3-c]pyridin-1(2H)-yl)(1-methyl-1H-indol-3-yl)methanone] | > 100 |
| O=C(c1n[nH]c2ccc(Cl)cc12)N1C[C@@H]2C[N@@]3CC[C@@H]2[C@@H]1C3 [Example 103, ((3S,3aS,6R,7aR)-hexahydro-3,6-methanopyrrolo[2,3-c]pyridin-1(2H)-yl)(5-chloro-1H-indazol-3-yl)methanone] | > 100 |
| COc1ccc2c(C(=O)N3C[C@@H]4C[N@@]5CC[C@@H]4[C@@H]3C5)n[nH]c2c1 [Example 104, ((3S,3aS,6R,7aR)-hexahydro-3,6-methanopyrrolo[2,3-c]pyridin-1(2H)-yl)(6-methoxy-1H-indazol-3-yl)methanone] | > 100 |
| O=C(c1n[nH]c2ccc(Br)cc12)N1C[C@@H]2C[N@@]3CC[C@@H]2[C@@H]1C3 [Example 105, ((3S,3aS,6R,7aR)-hexahydro-3,6-methanopyrrolo[2,3-c]pyridin-1(2H)-yl)(5-bromo-1H-indazol-3-yl)methanone] | > 100 |
| O=C(c1cc2c(Cl)cccc2s1)N1C[C@@H]2C[N@@]3CC[C@@H]2[C@@H]1C3 [Example 106, 4-chlorobenzo[b]thiophen-2-yl((3S,3aS,6R,7aR)-hexahydro-3,6-methanopyrrolo[2,3-c]pyridin-1(2H)-yl)methanone] | > 100 |
| COc1cccc2[nH]nc(C(=O)N3C[C@@H]4C[N@@]5CC[C@@H]4[C@@H]3C5)c12 [Example 107, ((3S,3aS,6R,7aR)-hexahydro-3,6-methanopyrrolo[2,3-c]pyridin-1(2H)-yl)(4-methoxy-1H-indazol-3-yl)methanone] | 30 |
| O=C(c1cc2cccc(Cl)c2s1)N1C[C@@H]2C[N@@]3CC[C@@H]2[C@@H]1C3 [Example 108, 7-chlorobenzo[b]thiophen-2-yl((3S,3aS,6R,7aR)-hexahydro-3,6-methanopyrrolo[2,3-c]pyridin-1(2H)-yl)methanone] | > 100 |
| O=C(c1n[nH]c2cc(Cl)ccc12)N1C[C@@H]2C[N@@]3CC[C@@H]2[C@@H]1C3 [Example 109, ((3S,3aS,6R,7aR)-hexahydro-3,6-methanopyrrolo[2,3-c]pyridin-1(2H)-yl)(6-chloro-1H-indazol-3-yl)methanone] | > 100 |
| COc1ccc2[nH]nc(C(=O)N3C[C@@H]4C[N@@]5CC[C@@H]4[C@@H]3C5)c2c1 [Example 110, ((3S,3aS,6R,7aR)-hexahydro-3,6-methanopyrrolo[2,3-c]pyridin-1(2H)-yl)(5-methoxy-1H-indazol-3-yl)methanone] | > 100 |
| O=C(c1nsc2ccccc12)N1C[C@@H]2C[N@@]3CC[C@@H]2[C@@H]1C3 [Example 111, benzo[d]isothiazol-3-yl((3S,3aS,6R,7aR)-hexahydro-3,6-methanopyrrolo[2,3-c]pyridin-1(2H)-yl)methanone] | 36 |
| O=C(c1ccc(Cl)cc1)N1C[C@@H]2C[N@@]3CC[C@@H]2[C@@H]1C3 [Example 112, (4-chlorophenyl)((3S,3aS,6R,7aR)-hexahydro-3,6-methanopyrrolo[2,3-c]pyridin-1(2H)-yl)methanone] | > 100 |
| O=C(c1cc2ccccc2o1)N1C[C@@H]2C[N@@]3CC[C@@H]2[C@@H]1C3 [Example 113, benzofuran-2-yl((3S,3aS,6R,7aR)-hexahydro-3,6-methanopyrrolo[2,3-c]pyridin-1(2H)-yl)methanone] | > 100 |

Same assay, conditions: Table 4, agonist Ca2+ flux, read-out: FLIPR α7 (EC50)

| EC50 [µM] | Structure (SMILES) |
| --- | --- |
| 0.47 | O=C(c1n[nH]c2ccccc12)N1CC2CCN3CCC2C1C3 (centres unmarked) [Example 114, (hexahydro-1H-1,6-methanopyrrolo[3,4-d]azepin-2(7H)-yl)(1H-indazol-3-yl)methanone] |

Same assay, conditions: Table 5, agonist Ca2+ flux, read-out: FLIPR α7 (EC50)

| EC50 [µM] | Structure (SMILES) |
| --- | --- |
| 0.073 | O=C(c1n[nH]c2ccccc12)N1C2CC3CC1CN(C3)C2 [Example 115, 1,4-diazaadamantan-4-yl(1H-indazol-3-yl)methanone] |
